Experimental findings from US20230382915A1, “GCN2 AND PERK KINASE INHIBITORS AND METHODS OF USE THEREOF” (Deciphera Pharmaceuticals, LLC, priority 2021, published 2023) are described below.

In test [1] the test system is ATF4 in H929 multiple myeloma cells. The test is described as follows: H929 ATF4 ELISA assay. The format is cell-based. To be noted: four hours, relative to vehicle treated control. As for the experimental part: H929 multiple myeloma cells (catalog #CRL-9068) were obtained from the American Type Culture Collection (ATTC, Manassas, VA). Briefly, cells were grown in RPMI-1640 medium supplemented with 20% heat-inactivated fetal bovine serum (catalog #A3840002, ThermoFisher Scientific, Waltham, MA), 1% Penicillin/Streptomycin/L-Glutamine (catalog #10378016, ThermoFisher Scientific, Waltham, MA), and 0.05 mM 2-mercaptoethanol (catalog #21985-023, ThermoFisher Scientific, Waltham, MA) at 37° C., 5% CO2, and 95% humidity. Cells were expanded until reaching one million five hundred thousand cells per mL at which time they were sub-cultured or harvested for assay use. One million five hundred thousand cells per well in 1 mL complete growth medium were dispensed into 12-well plates and incubated overnight. A serial dilution of test compound was added, and cells were incubated at 37° C., 5% CO2, and 95% for four hours. Cells were lysed then ATF4 levels were measured using an ELISA assay (Proteintech, Rosemont, IL). Absorbance is measured at 450 nm and 544 nM using a Synergy2 or equivalent reader (Biotek, Winooski VT). Data were analyzed using PRISM software (Graphpad, San Diego, CA) to calculate fold stimulation of cellular ATF4 relative to vehicle treated control.

The target of the next test is PERK enzyme (Homo sapiens (Human), UniProt Q9NZJ5). The test is described as follows: Biochemical assay for PERK (coupled pyruvate kinase/lactate dehydrogenase). The settings on record: 1 mM ATP. As for the experimental part: Activity of PERK kinase was determined spectroscopically using a coupled pyruvate kinase/lactate dehydrogenase assay that continuously monitors the ATP hydrolysis-dependent oxidation of NADH (e.g., Schindler et al. Science (2000) 289: 1938-1942). Assays were conducted in 384-well plates ([…] final volume) using 10 nM PERK (from Beryllium), 0.25 mg/mL Myelin Basic Protein substrate, 1.5 units pyruvate kinase, 2.1 units lactate dehydrogenase, 1 mM phosphoenol pyruvate, 0.28 mM NADH and 1 mM ATP in assay buffer (100 mM Tris, pH 7.5, 15 mM MgCl2, 0.5 mM DTT, 0.004% (w/v) BSA, and 0.004% Triton X-100). Inhibition of PERK was measured by adding serial diluted test compound (final assay concentration of 1% DMSO). A decrease in absorption at 340 nm was monitored continuously for 6 hours at 30° C. on a multi-mode microplate reader (BioTek). The reaction rate was calculated using the 2-3 h time frame. The reaction rate at each concentration of compound was converted to percent inhibition using controls (i.e., reaction with no test compound and reaction with a known inhibitor) and IC50 values were calculated using software routines in Prism (GraphPad software).

The next test has as its system CCRF-CEM leukemia cells. The test is described as follows: CCRF-CEM ASNase cell proliferation assay. The format is cell-based. The settings on record: Homo sapiens, 1 mU/mL ASNase, 72 h. As for the experimental part: CCRF-CEM leukemia cells (catalog #CCL-116) were obtained from the American Type Culture Collect (ATTC, Manassas, VA). Cells were grown in RPMI-1640 medium supplemented with 10% heat-inactivated fetal bovine serum (Invitrogen, Carlsbad, CA) and 1% Penicillin/Streptomycin/L-Glutamine at 37° C., 5% CO2, and 95% humidity. Cells were expanded until reaching one million cells per mL at which time they are subcultured or harvested for assay use. Ten thousand cells per well in 200 μL RPMI-1640 supplemented with 10% heat-inactivated fetal bovine serum and 1% Penicillin/Streptomycin were dispensed into a 96-well black clear bottom plate. A serial dilution of test compound and 1 mU/mL ASNase was added in triplicate and plates were incubated for 72 h at 37° C., 5% CO2, and 95% humidity. At the end of the incubation, 40 μL of a […] solution of resazurin (Sigma, St. Louis, MO) in PBS was added to each well of the plate and plates were incubated for an additional 6 h at 37° C., 5% CO2, and 95% humidity. Plates were read on a Synergy2 or equivalent reader (Biotek, Winooski VT) using an excitation of 540 nm and an emission of 600 nm. Data was analyzed using GraphPad Prism software (GraphPad, San Diego, CA) to calculate IC50 values.

For test [2], the system named is ATF4 in thapsigargin stimulated CCRF-CEM cells (PERK). The test is described as follows: CCRF-CEM thapsigargin (TG) ATF4 ELISA. To be noted: Homo sapiens, 1 μM thapsigargin. The format is cell-based. As for the experimental part:
CCRF-CEM leukemia cells (catalog #CCL-116) were obtained from the American Type Culture Collection (ATTC, Manassas, VA). Briefly, cells were grown in RPMI-1640 medium supplemented with 10% heat-inactivated fetal bovine serum (Invitrogen, Carlsbad, CA) and 1% Penicillin/Streptomycin/L-Glutamine at 37° C., 5% CO2, and 95% humidity. Cells were expanded until reaching one million cells per mL at which time they were subcultured or harvested for assay use. One million five hundred thousand cells per well in 1 mL complete growth medium were dispensed into 12-well plates and incubated overnight. A serial dilution of test compound was added and cells were incubated at 37° C., 5% CO2, and 95% for three hours, then 1 μM thapsigargin was added and cells were incubated for an additional hour at 37° C., 5% CO2, and 95%. Cells were lysed then ATF4 levels were measured using an ELISA assay (Proteintech, Rosemont, IL). Absorbance was measured at 450 nm and 544 nM using a Synergy2 or equivalent reader (Biotek, Winooski VT). Data was analyzed using PRISM software (Graphpad, San Diego, CA) to calculate IC50 values.

The next test concerns the target GCN2 kinase (Homo sapiens (Human), UniProt Q9P2K8). The test is described as follows: Biochemical assay for GCN2 (TR-FRET kinase activity). The settings on record: 1 mM ATP. How it is done: Activity of GCN2 kinase was determined using a TR-FRET kinase activity assay (e.g. Riddle et al. Analytical Biochemistry (2006) 356(1) 108-116). Assays were conducted in 384-well plates (13 μL assay volume) using 2 nM GCN2 (Carna Biosciences), 130 nM GFP-EIf2α (Invitrogen), 0.2 mg/mL E. coli tRNA (sigma) and 1 mM ATP in kinase buffer (Invitrogen). Inhibition of GCN2 was measured by adding serial diluted test compound (final assay concentration of 0.5% DMSO) followed by a 3-hour incubation. Tb-peIF2α (pSer52) antibody (Invitrogen) (2 nM final assay concentration) in kinase buffer containing EDTA (final assay concentration of 20 mM) was added. After a 60 min incubation at room temperature, TR-FRET was monitored using an excitation wavelength of 340 nm and emission wavelengths of 490 nm and 520 nm. The emission ratio (520/490) at each compound concentration of was converted to percent inhibition using controls (i.e., reaction with no test compound and reaction with a known inhibitor) and IC50 values were calculated by fitting a four-parameter sigmoidal curve to the data using Prism (GraphPad software).
For orientation: In TR-FRET formats the signal depends on donor and acceptor labels being close together.

In test [3] the test system is ATF4 in HCT116 colorectal cancer cells. Briefly: HCT116 amino acid starved (-AA) ATF4 Western blot. To be noted: Homo sapiens, HCT-116, 4 h. The format is cell-based. As for the experimental part:
(§1) HCT116 colorectal cancer cells (catalog #CCL-247) were obtained from the American Type Culture Collect (ATTC, Manassas, VA). Briefly, cells were grown in RPMI 1640 supplemented with 10% heat inactivated fetal bovine serum (Invitrogen, Carlsbad, CA) and 1% Penicillin/Streptomycin/L-Glutamine at 37° C., 5% CO2, and 95% humidity. Cells were expanded until reaching 70-95% confluency at which point they were subcultured or harvested for assay use. Cells were seeded in 12-well culture plate at five hundred thousand cells per well in 1 mL complete growth medium and incubated overnight at 37° C., 5% CO2, and 95% humidity. The next day each well was replaced with 1 mL Earle's Balanced Salt Solution (EBSS, Invitrogen, Carlsbad, CA) supplemented with 10% Dialyzed Fetal Bovine Serum, 5.5 mM Glucose, 1% Penicillin/Streptomycin and 1% Vitamin solution (thermo #11120052). A serial dilution of test compound was dispensed into well. Plates were incubated for 4 h at 37° C., 5% CO2, and 95% humidity. […] Western blot was performed on each lysate to quantify phospho-GCN2 (Thr899), total GCN2, ATF4 and beta-Actin. […] Data were analyzed using GraphPad Prism software (GraphPad, San Diego, CA) to calculate IC50 values.

The test system of test [4] is phospho-GCN2 (Thr899) in HCT116 colorectal cancer cells. The test is described as follows: HCT116 amino acid starved (-AA) phospho-GCN2 Western blot. Type of test: cell-based. The settings on record: Homo sapiens, HCT-116, 4 h, read-out: HCT116 -AA pGCN2 Western Blot. How it is done: as §1
For orientation: Immunoblotting shows a protein as a band on a membrane.

pIC50: −log10 of the molar value.

PERK enzyme, sequence (Q9NZJ5 other isoform, or with tags, fused parts or gaps): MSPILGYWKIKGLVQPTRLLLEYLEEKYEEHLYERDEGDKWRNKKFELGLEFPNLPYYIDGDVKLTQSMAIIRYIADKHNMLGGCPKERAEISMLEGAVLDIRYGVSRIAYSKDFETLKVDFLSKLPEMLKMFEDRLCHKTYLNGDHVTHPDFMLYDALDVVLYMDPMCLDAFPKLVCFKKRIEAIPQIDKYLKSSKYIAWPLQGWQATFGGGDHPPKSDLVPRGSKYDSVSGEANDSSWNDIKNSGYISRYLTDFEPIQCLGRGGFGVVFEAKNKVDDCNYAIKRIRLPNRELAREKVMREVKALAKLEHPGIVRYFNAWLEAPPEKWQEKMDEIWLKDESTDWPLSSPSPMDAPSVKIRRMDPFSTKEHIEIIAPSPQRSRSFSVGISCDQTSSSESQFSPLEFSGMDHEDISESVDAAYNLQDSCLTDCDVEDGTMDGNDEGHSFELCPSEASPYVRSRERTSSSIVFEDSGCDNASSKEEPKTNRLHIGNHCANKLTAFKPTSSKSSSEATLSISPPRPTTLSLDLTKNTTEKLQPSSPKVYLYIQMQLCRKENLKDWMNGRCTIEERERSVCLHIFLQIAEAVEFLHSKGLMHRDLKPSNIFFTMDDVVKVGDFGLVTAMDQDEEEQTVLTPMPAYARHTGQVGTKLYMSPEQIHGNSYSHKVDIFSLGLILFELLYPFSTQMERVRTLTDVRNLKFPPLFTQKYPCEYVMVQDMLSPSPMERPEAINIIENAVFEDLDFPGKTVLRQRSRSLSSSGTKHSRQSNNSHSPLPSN
GCN2 kinase, sequence (Q9P2K8 whole entry): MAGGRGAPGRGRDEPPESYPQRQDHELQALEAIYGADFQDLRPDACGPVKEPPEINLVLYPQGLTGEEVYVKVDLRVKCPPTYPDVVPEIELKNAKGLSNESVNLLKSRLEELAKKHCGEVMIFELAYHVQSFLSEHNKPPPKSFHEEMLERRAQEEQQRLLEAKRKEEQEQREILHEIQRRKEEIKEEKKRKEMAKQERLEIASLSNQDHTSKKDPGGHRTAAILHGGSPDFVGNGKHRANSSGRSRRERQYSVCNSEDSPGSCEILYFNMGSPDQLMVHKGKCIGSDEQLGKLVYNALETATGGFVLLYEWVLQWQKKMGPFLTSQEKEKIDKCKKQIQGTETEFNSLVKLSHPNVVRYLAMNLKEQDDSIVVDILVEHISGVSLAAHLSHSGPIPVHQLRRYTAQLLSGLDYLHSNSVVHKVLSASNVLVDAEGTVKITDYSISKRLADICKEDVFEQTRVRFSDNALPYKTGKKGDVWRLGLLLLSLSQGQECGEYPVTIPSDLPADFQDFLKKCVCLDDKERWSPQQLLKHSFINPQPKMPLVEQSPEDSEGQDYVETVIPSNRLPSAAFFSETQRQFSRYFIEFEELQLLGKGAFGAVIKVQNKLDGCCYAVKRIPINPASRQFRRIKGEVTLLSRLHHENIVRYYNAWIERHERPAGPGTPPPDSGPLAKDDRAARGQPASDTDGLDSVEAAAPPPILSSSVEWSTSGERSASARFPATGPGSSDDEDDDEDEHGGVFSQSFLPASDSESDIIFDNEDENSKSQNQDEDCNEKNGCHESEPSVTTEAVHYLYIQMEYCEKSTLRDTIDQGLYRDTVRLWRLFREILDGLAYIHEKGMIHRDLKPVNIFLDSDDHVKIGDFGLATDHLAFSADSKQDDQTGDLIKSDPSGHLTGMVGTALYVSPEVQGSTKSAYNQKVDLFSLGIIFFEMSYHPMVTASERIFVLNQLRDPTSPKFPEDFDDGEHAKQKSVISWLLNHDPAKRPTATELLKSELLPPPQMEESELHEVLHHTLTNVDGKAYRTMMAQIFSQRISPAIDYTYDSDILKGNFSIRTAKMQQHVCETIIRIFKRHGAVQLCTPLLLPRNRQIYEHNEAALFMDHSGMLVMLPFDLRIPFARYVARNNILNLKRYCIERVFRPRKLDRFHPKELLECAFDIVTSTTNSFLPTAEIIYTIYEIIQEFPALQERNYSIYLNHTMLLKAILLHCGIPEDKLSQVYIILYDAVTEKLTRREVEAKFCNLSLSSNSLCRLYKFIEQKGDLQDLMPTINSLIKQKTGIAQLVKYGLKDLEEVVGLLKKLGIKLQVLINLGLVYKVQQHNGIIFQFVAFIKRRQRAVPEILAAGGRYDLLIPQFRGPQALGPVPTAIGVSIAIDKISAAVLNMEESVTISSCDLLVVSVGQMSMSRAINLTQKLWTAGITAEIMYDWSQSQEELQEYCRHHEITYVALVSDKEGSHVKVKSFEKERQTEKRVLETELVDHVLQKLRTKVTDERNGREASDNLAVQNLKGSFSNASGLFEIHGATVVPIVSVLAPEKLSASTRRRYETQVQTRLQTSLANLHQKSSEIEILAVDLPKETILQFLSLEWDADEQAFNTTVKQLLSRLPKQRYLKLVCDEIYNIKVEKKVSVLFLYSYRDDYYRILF

Regarding `COCCn1cc(-c2cccc(NS(=O)(=O)c3cc(Cl)cc(CO)c3Cl)c2F)c2c(N)ncnc21` [Example 4], the “H929 NS ATF4 ELISA (ATF4 stim)” value in test [1] was “+++ (an ATF4 stim greater than 10 fold and less than or equal to 20 fold)”. Also, the pIC50 (at PERK enzyme; in the test with CCRF-CEM leukemia cells; in test [2]; against GCN2 kinase) was not below 7.00 in each case.

On to `COc1c(CO)cc(Cl)cc1S(=O)(=O)Nc1cccc(-c2cn(C)c3ncnc(N)c23)c1F` [Example 24], for which the “H929 NS ATF4 ELISA (ATF4 stim)” value in test [1] is “++ (an ATF4 stim greater than 5-fold and less than or equal to 10 fold)”. In addition, the pIC50 on PERK enzyme is not below 7.00; in the test on CCRF-CEM leukemia cells it was 5.00 to 6.00; in test [2] it was 6.30 to 7.00; against GCN2 kinase it was 5.00 to 6.00.

Turning to `Cc1c(CO)cc(Cl)cc1S(=O)(=O)Nc1cccc(-c2cn(C)c3ncnc(N)c23)c1F` [Example 26], in test [1], the “H929 NS ATF4 ELISA (ATF4 stim)” value is “+++ (an ATF4 stim greater than 10 fold and less than or equal to 20 fold)”. The pIC50 at PERK enzyme was not below 7.00; in the test with CCRF-CEM leukemia cells, 6.30 to 7.00; in test [2], not below 7.00; on GCN2 kinase, not below 7.00.

Turning to `CC(C)n1cc(-c2cccc(NS(=O)(=O)c3cc(Cl)cc(CO)c3Cl)c2F)c2c(N)ncnc21` [Example 3], the pIC50 (in test [3]; against PERK enzyme; with CCRF-CEM leukemia cells; in test [4]; in test [2]; against GCN2 kinase) was not below 7.00 each time.

`Cn1nc(-c2cccc(NS(=O)(=O)c3cc(Cl)cc(CO)c3Cl)c2F)c2c(N)ncnc21` [Example 21]: the “H929 NS ATF4 ELISA (ATF4 stim)” value in test [1] is “++ (an ATF4 stim greater than 5-fold and less than or equal to 10 fold)”. Moreover, the pIC50 against PERK enzyme is not below 7.00; with CCRF-CEM leukemia cells, 6.30 to 7.00; in test [2], 6.30 to 7.00; against GCN2 kinase it was not below 7.00.

Regarding `Cn1cc(-c2cc(F)cc(NS(=O)(=O)c3cc(Cl)cc(CO)c3Cl)c2F)c2c(N)ncnc21` [Example 14], the “H929 NS ATF4 ELISA (ATF4 stim)” value in test [1] is “++ (an ATF4 stim greater than 5-fold and less than or equal to 10 fold)”. The pIC50 was not below 7.00 at PERK enzyme, 6.30 to 7.00 in the test on CCRF-CEM leukemia cells, 6.30 to 7.00 in test [2] and not below 7.00 on GCN2 kinase.

For the compound `Nc1ncnc2c1c(-c1cccc(NS(=O)(=O)c3cc(Cl)cc(CO)c3Cl)c1F)cn2C1COC1` [Example 10], in test [1], the “H929 NS ATF4 ELISA (ATF4 stim)” value was “+++ (an ATF4 stim greater than 10 fold and less than or equal to 20 fold)”. In addition, the pIC50 (against PERK enzyme; with CCRF-CEM leukemia cells; in test [2]; against GCN2 kinase) was not below 7.00 in each case.

For `Cn1cc(-c2cccc(NS(=O)(=O)c3cccc(CO)c3Cl)c2F)c2c(N)ncnc21` [Example 5], the “H929 NS ATF4 ELISA (ATF4 stim)” value in test [1] was “++ (an ATF4 stim greater than 5-fold and less than or equal to 10 fold)”. The pIC50 was not below 7.00 on PERK enzyme, 5.00 to 6.00 with CCRF-CEM leukemia cells, 6.30 to 7.00 in test [2] and 5.00 to 6.00 at GCN2 kinase.

As to `Cc1cc(CO)c(Cl)c(S(=O)(=O)Nc2cccc(-c3cn(C)c4ncnc(N)c34)c2F)c1` [Example 25], the “H929 NS ATF4 ELISA (ATF4 stim)” value in test [1] was “+++ (an ATF4 stim greater than 10 fold and less than or equal to 20 fold)”. Besides, the pIC50 against PERK enzyme was not below 7.00; in the test with CCRF-CEM leukemia cells, 6.30 to 7.00; in test [2] it was not below 7.00; against GCN2 kinase, 6.30 to 7.00.

In the case of `Nc1ncnc2c1c(-c1cccc(NS(=O)(=O)c3cc(Cl)cc(CO)c3Cl)c1F)cn2C1CC1` [Example 8], the “H929 NS ATF4 ELISA (ATF4 stim)” value in test [1] is “+++ (an ATF4 stim greater than 10 fold and less than or equal to 20 fold)”. The pIC50 (at PERK enzyme; with CCRF-CEM leukemia cells; in test [2]; on GCN2 kinase) was not below 7.00 each time.
